“Also recorded” adds a separate entry of the source.
Assays:
[1] = tested on: bronchial rings from control and house dust mite (HDM)-sensitized mice; assay: Contractile responses ex vivo of bronchial rings from control and house dust mite-sensitized mice; conditions: bronchial rings from control and HDM-sensitized mice pre-treated with inhibitor; FIG. 7
Procedure: (§1) Analysis of airways reactivity ex vivo: Primary bronchi were cut in 2 mm-long rings and mounted on a multichannel isometric myograph (Danish Myo Technology) containing a Krebs-Henseleit solution (118.4 mM NaCl, 4.7 mM KCl, 2 mM CaCl2, 1.2 mM MgSO4, 1.2 mM KH2PO4, 25 mM NaHCO3 and 11 mM glucose). A pre-trension of 0.5 mN was applied and maintained all along the protocol. We constructed cumulative concentration-response curves in response to KCl and methacholine (Sigma). When indicated, we pretreated rings with EHT1864 (Sigma) or NSC23766 (Calbiochem) Rac1 inhibitors at 10 μM, 1 h before contraction. Chambers wire myograph were connected to a digital data recorder (MacLab/4e, AD Instruments) and recordings were analyzed using LabChart v7 software (AD Instruments).
Allergic asthma induction: House dust mite model (HDM) of chronic asthma was used. In this case, mice were sensitized on days D0, D7, D14 and D21 by skin application of 500 μg of total extract of HDM Der f (Stallergenes) in 20 μL of dimethylsulfoxyde (DMSO, Sigma-Aldrich) on the ears. DMSO was used as an irritant able to facilitate the allergen penetration. Intranasal challenges were performed with Der f (250 μg in phosphate-buffered saline 250) on D27 and D34. Mice were sacrificed on D35 for ex vivo analysis.

[2] = tested on: AHR to methacholine in OVA-sensitized mice; assay: Airway hyper-responsiveness to methacholine in OVA model of allergic asthma, plethysmography; conditions: for metacholine-induced airway response: summary statement: compared with SM-Rac1-KO mice in the OVA-sensitized model of allergic asthma; for AHR to methacholine: OVA-sensitized mice, nebulized before methacholine challenge, FIG. 6, E (o/o)
Procedure: Analysis of airways responsiveness in vivo: Airway responsiveness was assessed in conscious, unrestrained mice using a barometric, whole-body plethysmography (EMKA Technologies) by recording respiratory pressure curves in response to inhaled methacholine (Sigma) at concentrations of 0-40 mg/ml for 1 min. Airway responsiveness was expressed in enhanced pause (Penh) units. The Penh values measured after stimulation were averaged and expressed as the fold-increase over baseline values. Alternatively, dynamic airway resistance was measured using a Flexivent® apparatus (SCIREQ). In this case, mice were anesthetized by a ketamine/xylazine solution, tracheotomized, paralyzed and immediately intubated, followed by mechanical ventilation. Respiratory frequency was set at 150 breaths/min. Increasing concentrations of methacholine (0-15 mg/mL) were administered via a nebulizer aerosol system (Aeroneb, Aerogen).
Allergic asthma induction: When indicated, asthma was induced in mice by intraperitoneal injections with ovalbumin (OVA) in alum (Sigma) at D0, D14 and D21. Mice were challenged at D27, D28 and D29 through intranasal route with aerosolized OVA (50 μg in phosphate-buffered saline). These OVA-sensitized mice were used as a model of in vivo chronic asthma. Control mice were sensitized with PBS/alum and then were challenged with PBS.

bronchial rings = assay: Analysis of airways reactivity ex vivo: bronchial rings on isometric myograph; conditions: bronchial rings from SM-Rac1-KO mice; FIG. 2, A and B
Procedure: as §1

[3] = tested on: methacholine-dependent bronchoconstriction; assay: Airways responsiveness in vivo to inhaled methacholine, whole-body plethysmography, control (naive) mice; conditions: nebulized 10 min before methacholine challenge, FIG. 3, B and FIG. 6, E (ap/ap)

SMILES	methacholine and KCl contractions (bronchial reactivity) [1]	metacholine-induced airway response [2]	KCl- and methacholine-induced contraction (bronchial rings)	methacholine-dependent bronchoconstriction (airway reactivity, Penh) [3]	AHR to methacholine [2]
O=c1cc(CN2CCOCC2)occ1OCCCCCSc1ccnc2cc(C(F)(F)F)ccc12 [EHT1864]	methacholine and KCl contractions are inhibited in both group of bronchial rings; also recorded: bronchial reactivities of control and HDM sensitized-mice are similar	Same results have been obtained	–	–	–
CCN(CC)CCCC(C)Nc1nc(C)cc(Nc2ccc3nc(C)cc(N)c3c2)n1 (centres unmarked) [NSC23766]	–	Same results have been obtained	absence of any effect	prevented methacholine-dependent bronchoconstriction (FIG. 3, B) in a dose-dependent manner; also recorded: comparable to that of salbutamol treatment	almost completely prevented the AHR to methacholine; also recorded: comparable to that of salbutamol treatment
CC(C)(C)NCC(O)c1ccc(O)c(CO)c1 (centres unmarked) [salbutamol]	–	–	–	efficiency of NSC23766 aerosol inhalation is similar to that of salbutamol; also recorded: effect of NSC23766 aerosol inhalation was comparable to that of salbutamol treatment	effect of NSC23766 aerosol inhalation was comparable to that of salbutamol treatment

Source: US10155001B2, “RAC1 inhibitors for inducing bronchodilation” (INSERM (Institut National de la Sante et de la Recherche …, priority 2013, dated 2018)
